Experimental data reported in US20150031892A1, “SPHINGOLIPID METABOLITE MIMETICS” (Zhejiang University, priority 2012, published 2015).

Columns and labels:
Format in all cases: cell-based
SA = assay: MTT cytotoxicity assay, SA (pancreatic cancer as headed)
Protocol: (§1) Cell survival after exposure to the sphingolipid metabolite mimetics was examined by MTT cytotoxicity assay. HepG2, A431, HeLa, MCF-7 and SA cells (7000 cells/well) were seeded in each well of a 96-well plate for 24 h. New medium was added to give final concentrations of 0 to 200 μM of the sphingolipid metabolite mimetics. Then, 50 μl of 1 mg/ml 3-(4,5-dimethylthiazol-2-yl)-2,5-diphenyltetrazolium bromide (MTT, Sigma-Aldrich Chemical) was added to each well for 4 h incubation at 37° C. The purple formazan formed was then solubilized by DMSO and absorbance at 570 nm was read by a microplate reader (Molecular Devices, Sunnyvale, Calif.).

A431 = assay: MTT cytotoxicity assay, A431 (squamous carcinoma); settings: Homo sapiens, A-431
Protocol: as §1

SW620 = assay: MTT cytotoxicity assay, SW620 (colon cancer); settings: Homo sapiens, SW-620
HepG2 = assay: MTT cytotoxicity assay, HepG2 (liver cancer); settings: Homo sapiens
Protocol: as §1

SW480 = assay: MTT cytotoxicity assay, SW480 (colon cancer); settings: Homo sapiens
MCF-7 = assay: MTT cytotoxicity assay, MCF-7 (breast cancer); settings: Homo sapiens, MCF7; Breast Cancer MCF-7, MTT
Protocol: as §1

SiHa = assay: MTT cytotoxicity assay, SiHa (ovarian cancer as headed); settings: Homo sapiens, Cervical Cancer SiHa

Structure (SMILES) | IC50 (SA) [µM] | IC50 (A431) [µM] | IC50 (SW620) [µM] | IC50 (HepG2) [µM] | IC50 (SW480) [µM] | IC50 (MCF-7) [µM] | IC50 (SiHa) [µM]
C/C=C/C=C/C(=O)N[C@H](C(=O)NCCCCCCCCCCCCCCCCCC)C(C)O (stereo in doubt) [NZJU12, (2E,4E)-N-((2S,3R)-3-hydroxy-1-oxo-1-(octadecylamino)butan-2-yl)-2,4-hexadienoic acid amide] | > 200 | 187 ± 2.41 | ≥ 200 | 284 ± 8.3 | 196 | 79.6 ± 2.34 | > 200
CCCCCCCCCCCCCCCCCCNC(=O)[C@@H](N)[C@@H](C)O [NZJU4, (2S,3R)-2-Amino-3-hydroxy-N-octadecylbutanamide] | – | 21.3 ± 1.72 | 21.4 ± 1.24 | 44.5 ± 3.49 | 27.5 ± 3.03 | 27.4 ± 1.8 | 39.5 ± 0.88
C/C=C/C=C/C(=O)N[C@H](C(=O)NCCCCCCCCCCCC)[C@@H](C)O [NZJU10, (2E,4E)-N-((2S,3R)-3-hydroxy-1-oxo-1-(dodecylamino)butan-2-yl)-2,4-hexadienoic acid amide] | 189 ± 12.2 | 171 ± 12.1 | ≥ 200 | > 400 | > 200 | 37.1 ± 4.11 | > 200
C/C=C/C=C/C(=O)N[C@H](C(=O)NCCCCCCCCCCCCCC)[C@@H](C)O [NZJU11, (2E,4E)-N-((2S,3R)-3-hydroxy-1-oxo-1-(tetradecylamino)butan-2-yl)-2,4-hexadienoic acid amide] | 184 ± 1.9 | > 200 | ≥ 200 | > 400 | > 200 | 27.76 ± 0.14 | > 200
CCCCCCCCCCCCCCNC(=O)[C@@H](NC(=O)c1ccco1)[C@@H](C)O [NZJU14, N-((2S,3R)-3-hydroxy-1-oxo-1-(tetradecylamino)butan-2-yl)-Furan-2-carboxamide] | 148 ± 11.6 | 190 ± 6.86 | ≥ 200 | > 400 | 110 ± 5.03 | 105 ± 5.03 | 127 ± 7.41
CCCCCCCCCCCCCCCCCCNC(=O)[C@@H](NC(=O)c1ccco1)[C@@H](C)O [NZJU15, N-((2S,3R)-3-hydroxy-1-oxo-1-(octadecylamino)butan-2-yl)-Furan-2-carboxamide] | 52.6 ± 6.02 | 19.9 ± 0.45 | – | 42.3 ± 3.73 | 24.4 ± 0.7 | 21.4 ± 2.4 | 13.3 ± 1.05
CCCCCCCCCCCCCCNC(=O)[C@@H](NC(=O)c1ccccc1)[C@@H](C)O [NZJU17, N-((2S,3R)-3-hydroxy-1-oxo-1-(tetradecylamino)butan-2-yl)-benzamide] | 56 ± 7.43 | 118 ± 9.09 | ≥ 200 | 54.2 ± 3.95 | ≥ 200 | 24.8 ± 6.75 | > 200
CCCCCCCCCCCCCCCCCCNC(=O)[C@@H](NC(=O)c1cc2ccccc2o1)[C@@H](C)O [NZJU38, N-((2S,3R)-3-hydroxy-1-oxo-1-(octadecylamino)butan-2-yl)-benzofuran-2-carboxamide] | 162 ± 4.55 | 78.8 ± 6.99 | – | > 200 | > 200 | 126 ± 7.19 | > 200
CCCCCCCCNC(=O)[C@@H](NC(=O)c1nccc2ccccc12)[C@@H](C)O [NZJU43, N-((2S,3R)-3-hydroxy-1-oxo-1-(octylamino)butan-2-yl)-isoquinoline-1-carboxamide] | 22.9 ± 2.59 | 26.9 ± 2.81 | 67.75 ± 0.099 | 88.2 ± 1.92 | – | 63.2 ± 4.73 | 66 ± 5.48
CCCCCCCCCCCCNC(=O)[C@@H](NC(=O)c1cc2ccccc2n1C)[C@@H](C)O [NZJU50, N-((2S,3R)-3-hydroxy-1-oxo-1-(dodecylamino)butan-2-yl)-(N-methyl)indole-2-carboxamide] | 31.3 ± 1.14 | 169 ± 14.7 | – | > 200 | 36 ± 2.87 | – | > 200
CCCCCCCCCCCCCCCCCCNC(=O)[C@@H](NC(=O)c1cc2ccccc2n1C)[C@@H](C)O [NZJU52, N-((2S,3R)-3-hydroxy-1-oxo-1-(octadecylamino)butan-2-yl)-(N-methyl)indole-2-carboxamide] | 36.37 ± 0.19 | 61 ± 1.82 | – | > 200 | 36 ± 3.23 | – | 113 ± 12
CCCCCCCCCCCCNC(=O)[C@@H](NC(=O)c1ccc2cc(O)ccc2c1)[C@@H](C)O [NZJU53, N-((2S,3R)-3-hydroxy-1-oxo-1-(dodecylamino)butan-2-yl)-6-hydroxylnaphthoic-2-carboxamide] | 37.1 ± 1.17 | 33 ± 3.55 | – | 43 ± 4.04 | 58.1 ± 4.37 | – | 27.4 ± 2.07
CCCCCCCCCCCCCCNC(=O)[C@@H](NC(=O)c1ccc2cc(O)ccc2c1)[C@@H](C)O [NZJU54, N-((2S,3R)-3-hydroxy-1-oxo-1-(tetradecylamino)butan-2-yl)-6-hydroxylnaphthoic-2-carboxamide] | 24.2 ± 0.83 | 24.4 ± 1.27 | – | 23.6 ± 1.16 | 33.2 ± 1.08 | – | 30.1 ± 3.01
CCCCCCCCCCCCCCCCCCNC(=O)[C@@H](NC(=O)c1ccc2cc(O)ccc2c1)[C@@H](C)O [NZJU55, N-((2S,3R)-3-hydroxy-1-oxo-1-(octadecylamino)butan-2-yl)-6-hydroxylnaphthoic-2-carboxamide] | 84.8 ± 4.34 | 85.8 ± 1.73 | – | 73.7 ± 5.21 | 160 ± 5.86 | – | 48.1 ± 4.67
CCCCCCCCCCCCNC(=O)[C@@H](NS(=O)(=O)c1ccc(C)cc1)[C@@H](C)O [NZJU56, N-((2S,3R)-3-hydroxy-1-oxo-1-(dodecylamino)butan-2-yl)-4-methylbenzsulfonamide] | 27.2 ± 0.99 | 25.2 ± 0.99 | – | 25.8 ± 0.52 | 39.9 ± 2.54 | – | 31.6 ± 4.56
CCCCCCCCCCCCCCCCCCNC(=O)[C@@H](NS(=O)(=O)c1ccc(C)cc1)[C@@H](C)O [NZJU58, N-((2S,3R)-3-hydroxy-1-oxo-1-(octadecylamino)butan-2-yl)-4-methylbenzsulfonamide] | 47.9 ± 5.2 | 34 ± 1.03 | – | 75.8 ± 9.46 | > 200 | – | 29.8 ± 2.23
CCCCCCCCCCCCNC(=O)[C@@H](NS(=O)(=O)c1cccs1)[C@@H](C)O [NZJU59, N-((2S,3R)-3-hydroxy-1-oxo-1-(dodecylamino)butan-2-yl)-2-thiophene sulfonamide] | 20.1 ± 1.65 | 22 ± 0.86 | – | 25.9 ± 1.21 | 41 ± 2.25 | – | 30.9 ± 1.28
CCCCCCCCCCCCCCCCCCNC(=O)[C@@H](NS(=O)(=O)c1cccs1)[C@@H](C)O [NZJU61, N-((2S,3R)-3-hydroxy-1-oxo-1-(octadecylamino)butan-2-yl)-2-thiophene sulfonamide] | > 200 | > 200 | – | > 200 | > 200 | – | > 200
CCCCCCCCCCCCCCCCCCNC(=O)[C@@H](NS(=O)(=O)c1ccc2ccccc2c1)[C@@H](C)O [NZJU63, N-((2S,3R)-3-hydroxy-1-oxo-1-(octadecylamino)butan-2-yl)-2-naphthylsulfonamide] | 21.2 ± 0.81 | 23.7 ± 1.46 | – | 19.8 ± 3.12 | 69.1 ± 9.67 | – | 19.9 ± 3.31
CCCCCCCCCCCCCCNC(=O)[C@@H](NC(=O)C1=C[C@H](O)[C@H](O)[C@@H](O)C1)[C@@H](C)O [NZJU64, (3S,4R,5S)-3,4,5-trihydroxy-N-((2S,3R)-3-hydroxy-1-oxo-1-(tetradecylamino)butan-2-yl)cyclohex-1-enecarboxamide] | 33.7 ± 1.28 | 23.1 ± 2.97 | – | 29.9 ± 2.81 | 47.8 ± 3.43 | – | 24.6 ± 2.04
